Legend:
[1] = target: T1, Tyrosine-protein kinase ITK/TSK (Homo sapiens, UniProt Q08881)
T1 sequence (Q08881 whole entry): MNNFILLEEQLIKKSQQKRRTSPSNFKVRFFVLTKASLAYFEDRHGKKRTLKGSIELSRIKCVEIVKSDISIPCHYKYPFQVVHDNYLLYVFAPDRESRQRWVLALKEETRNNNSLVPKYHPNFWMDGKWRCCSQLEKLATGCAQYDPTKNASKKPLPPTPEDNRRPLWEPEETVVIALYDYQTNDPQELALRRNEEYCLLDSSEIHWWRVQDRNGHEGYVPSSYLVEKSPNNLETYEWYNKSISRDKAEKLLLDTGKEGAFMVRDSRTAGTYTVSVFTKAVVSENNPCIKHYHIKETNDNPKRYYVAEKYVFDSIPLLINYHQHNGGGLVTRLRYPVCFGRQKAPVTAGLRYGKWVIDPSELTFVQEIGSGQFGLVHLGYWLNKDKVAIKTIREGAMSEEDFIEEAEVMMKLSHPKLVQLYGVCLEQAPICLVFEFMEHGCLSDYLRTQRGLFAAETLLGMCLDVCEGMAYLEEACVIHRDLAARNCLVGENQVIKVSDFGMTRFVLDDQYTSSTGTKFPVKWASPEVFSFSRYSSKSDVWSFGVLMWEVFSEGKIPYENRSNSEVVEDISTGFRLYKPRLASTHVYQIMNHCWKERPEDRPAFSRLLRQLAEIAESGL

[2] = target: Tyrosine-protein kinase Lck (Homo sapiens, UniProt P06239)
Tyrosine-protein kinase Lck, sequence (P06239 whole entry): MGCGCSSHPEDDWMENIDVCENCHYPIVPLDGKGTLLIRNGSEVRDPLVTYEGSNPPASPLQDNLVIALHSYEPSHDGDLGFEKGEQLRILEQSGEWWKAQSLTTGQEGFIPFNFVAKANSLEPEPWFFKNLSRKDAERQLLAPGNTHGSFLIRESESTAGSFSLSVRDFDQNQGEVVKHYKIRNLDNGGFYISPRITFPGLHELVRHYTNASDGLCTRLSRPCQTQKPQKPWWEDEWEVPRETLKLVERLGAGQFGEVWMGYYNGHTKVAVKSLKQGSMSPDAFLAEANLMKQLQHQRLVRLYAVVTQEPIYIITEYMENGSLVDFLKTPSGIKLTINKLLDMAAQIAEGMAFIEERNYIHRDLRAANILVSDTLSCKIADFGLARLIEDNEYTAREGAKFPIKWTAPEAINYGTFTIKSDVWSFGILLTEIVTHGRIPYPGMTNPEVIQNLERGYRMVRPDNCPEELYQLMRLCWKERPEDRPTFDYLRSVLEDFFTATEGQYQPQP

| Ki [1] | Ki [2] | SMILES |
| --- | --- | --- |
| 0.016 µM | – | COc1cc(C)c(Sc2cnc(NC(=O)c3ccc(CNC(C)C(C)(C)C)cc3)s2)cc1C(=O)N1CCN(C(C)=O)CC1 (configuration not stated) |
| – | 0.004 µM | Cc1cccc(Cl)c1NC(=O)c1ccc2nc(NC(=O)NC(C)(C)C)sc2c1 |

— ChEMBL document CHEMBL1240298, “Features of selective kinase inhibitors” (Chem Biol, 2005)
